# Laboratory results taken from US20240182481A1 (Tango Therapeutics, Inc., priority 2021, published 2024).
# What was measured:
# USP1-UAF1 = USP1-UAF1 (Homo sapiens, UniProt O94782); assay: Ubiquitin Rhodamine assay for USP1-UAF1 activity; assay type: biochemical
# Experimental: Certain compounds of the disclosure were assessed for USP1-UAF1 activity in a Ubiquitin Rhodamine assay as described in Example 135.
# [1] = system: MDA-MB-436 (BRCA1 mutant) cell line; assay: Viability assay in BRCA1 mutant cell line MDA-MB-436; assay type: cell-based; conditions: Homo sapiens, MDA-MB-436, viability, BRCA1 mutant MDA-MB-436; read-out: MDA-MB-436 rel IC50
# Description: (§1) Table 1 also indicates IC50 values in a viability assay for a non-isogenic pair of BRCA1 mutant (column 5—MDA-MB-436) and BRCA1 WT (column 6—HCC1954) cell lines. These values indicate the effect of treatment with compound on cell survival.
# [2] = system: HCC1954 (BRCA1 WT) cell line; assay: Viability assay in BRCA1 WT cell line HCC1954; assay type: cell-based; conditions: Homo sapiens, read-out: HCC 1954 IC50 rel IC50
# Description: as §1
# monoubiquitinated PCNA = assay: AlphaLISA assay measuring monoubiquitinated PCNA in MDA-MB-436; assay type: cell-based; conditions: Homo sapiens, read-out: Alpha LISA IC50
# Description: Table 1 also indicates IC50 values for exemplary compounds in an AlphaLISA assay measuring monoubiquitinated PCNA in a BRCA1 mutant cell line (MDA-MB-436; column 7).
# USP1-UAF1, sequence (O94782 whole entry): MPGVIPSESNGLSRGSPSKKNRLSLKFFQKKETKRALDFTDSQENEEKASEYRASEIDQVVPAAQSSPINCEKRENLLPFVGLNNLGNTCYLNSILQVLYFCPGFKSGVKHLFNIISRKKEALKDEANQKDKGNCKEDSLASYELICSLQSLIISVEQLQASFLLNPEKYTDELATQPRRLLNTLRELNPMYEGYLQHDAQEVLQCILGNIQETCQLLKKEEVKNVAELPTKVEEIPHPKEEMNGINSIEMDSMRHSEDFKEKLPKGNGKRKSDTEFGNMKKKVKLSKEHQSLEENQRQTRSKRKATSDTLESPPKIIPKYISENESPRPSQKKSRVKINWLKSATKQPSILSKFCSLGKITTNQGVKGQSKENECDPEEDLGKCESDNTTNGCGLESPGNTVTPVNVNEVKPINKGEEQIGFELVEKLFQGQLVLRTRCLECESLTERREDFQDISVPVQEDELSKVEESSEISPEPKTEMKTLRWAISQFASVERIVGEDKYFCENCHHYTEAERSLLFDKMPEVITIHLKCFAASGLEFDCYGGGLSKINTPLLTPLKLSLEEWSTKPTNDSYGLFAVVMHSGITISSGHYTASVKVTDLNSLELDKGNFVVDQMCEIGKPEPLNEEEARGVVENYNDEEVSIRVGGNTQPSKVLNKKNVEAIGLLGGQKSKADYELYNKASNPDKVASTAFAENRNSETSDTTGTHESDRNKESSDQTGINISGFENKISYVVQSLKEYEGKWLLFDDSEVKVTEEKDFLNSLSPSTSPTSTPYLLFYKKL
# USP1-UAF1, sequence (Q8TAF3 whole entry partner): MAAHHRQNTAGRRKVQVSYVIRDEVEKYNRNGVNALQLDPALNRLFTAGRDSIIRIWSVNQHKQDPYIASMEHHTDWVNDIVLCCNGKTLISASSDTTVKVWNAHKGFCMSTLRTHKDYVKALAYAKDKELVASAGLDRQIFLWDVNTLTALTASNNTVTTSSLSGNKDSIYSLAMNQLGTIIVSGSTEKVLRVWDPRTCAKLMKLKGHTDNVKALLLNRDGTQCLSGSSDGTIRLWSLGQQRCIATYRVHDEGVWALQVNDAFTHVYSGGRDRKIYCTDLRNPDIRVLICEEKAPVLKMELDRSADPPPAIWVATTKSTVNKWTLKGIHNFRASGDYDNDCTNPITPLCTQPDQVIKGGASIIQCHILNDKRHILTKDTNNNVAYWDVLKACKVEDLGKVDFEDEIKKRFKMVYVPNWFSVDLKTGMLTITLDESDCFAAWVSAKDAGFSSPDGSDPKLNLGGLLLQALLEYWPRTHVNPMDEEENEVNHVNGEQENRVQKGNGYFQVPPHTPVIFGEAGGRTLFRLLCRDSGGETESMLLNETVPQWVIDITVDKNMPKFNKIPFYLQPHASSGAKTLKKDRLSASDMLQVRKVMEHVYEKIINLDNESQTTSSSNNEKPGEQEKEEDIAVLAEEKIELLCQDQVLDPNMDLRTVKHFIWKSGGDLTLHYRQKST
IC50 (USP1-UAF1) [nM],IC50 [1] [nM],IC50 [2] [nM],IC50 (monoubiquitinated PCNA) [nM],Compound
< 30,< 100,≥ 10000,< 100,"COc1ncnc(C2(F)CC2)c1-c1ncc2[nH]nc(Cc3ccc(-c4nc(C(F)(F)F)cn4C)cc3)c2n1 [Compound 202, 5-[4-(1-fluorocyclopropyl)-6-methoxy-pyrimidin-5-yl]-3-[[4-[1-methyl-4-(trifluoromethyl)imidazol-2-yl]phenyl]methyl]-1H-pyrazolo[4,3-d]pyrimidine]"
< 30,< 100,≥ 10000,< 100,"COCCn1cc(Cc2ccc(-c3nc(C(F)(F)F)cn3C)cc2)c2nc(-c3ccccc3C(C)C)ncc21 [Compound 83, 2-(2-isopropylphenyl)-5-(2-methoxyethyl)-7-[[4-[1-methyl-4-(trifluoromethyl)imidazol-2-yl]phenyl]methyl]pyrrolo[3,2-d]pyrimidine]"
30 to 100,100 to 250,250 to 10000,100 to 250,Cn1cc(C(F)(F)F)nc1-c1ccc(Cc2c(CN)[nH]c3cnc(-c4cccnc4C4CC4)nc23)cc1 [Compound 186]
100 to 10000,100 to 250,250 to 10000,100 to 250,COc1ncnc(C2CC2)c1-c1ncc2[nH]cc(C(O)(c3ccc(-c4nc(C(F)(F)F)cn4C)cc3)C(C)C)c2n1 (stereo not drawn) [Compound 199]
30 to 100,100 to 250,≥ 10000,< 100,"CC(C)c1ccccc1-c1ncc2[nH]cc(Oc3ccc(-c4nc(C(F)(F)F)cn4C)cc3)c2n1 [Compound 2, 2-(2-isopropylphenyl)-7-[4-[1-methyl-4-(trifluoromethyl)imidazol-2-yl]phenoxy]-5H-pyrrolo[3,2-d]pyrimidine]"
30 to 100,< 100,250 to 10000,< 100,"Cn1cc(C(F)(F)F)nc1-c1ccc(C(O)c2c[nH]c3cnc(-c4c(OC(F)F)ncnc4C4CC4)nc23)cc1 (stereo not drawn) [Compound 168, [2-[4-cyclopropyl-6-(difluoromethoxy)pyrimidin-5-yl]-5H-pyrrolo[3,2-d]pyrimidin-7-yl]-[4-[1-methyl-4-(trifluoromethyl)imidazol-2-yl]phenyl]methanol]"
< 30,100 to 250,≥ 10000,100 to 250,Cn1cc(C(F)(F)F)nc1-c1ccc(Cc2n[nH]c3cnc(-c4c(C5CC5)ccnc4C4CC4)nc23)cc1 [Compound 174]
30 to 100,100 to 250,≥ 10000,100 to 250,"CCCOc1ncccc1-c1ncc2[nH]cc(Cc3ccc(-c4nc(C(F)(F)F)cn4C)cc3)c2n1 [Compound 34, 7-[[4-[1-methyl-4-(trifluoromethyl)imidazol-2-yl]phenyl]methyl]-2-(2-propoxy-3-pyridyl)-5H-pyrrolo[3,2-d]pyrimidine]"
< 30,< 100,250 to 10000,< 100,"C[C@@H](Oc1ncccc1-c1ncc2[nH]cc(Cc3ccc(-c4nc(C(F)(F)F)cn4C)cc3)c2n1)C(F)(F)F (single isomer, unassigned) [Compound 21]"
< 30,< 100,≥ 10000,< 100,"CC(C)c1ccccc1-c1ncc2[nH]cc(C(C)(O)c3ccc(-c4nc(C(F)(F)F)cn4C)cc3)c2n1 (stereo not drawn) [Compound 48, 1-[2-(2-isopropylphenyl)-5H-pyrrolo[3,2-d]pyrimidin-7-yl]-1-[4-[1-methyl-4-(trifluoromethyl)imidazol-2-yl]phenyl]ethanol]"
< 30,< 100,≥ 10000,< 100,"[2H]C([2H])([2H])Oc1ncnc(C2CC2)c1-c1ncc2[nH]cc(Cc3ccc(-c4nc(C(F)(F)F)cn4C)cc3)c2n1 [Compound 204, 2-[4-cyclopropyl-6-(trideuteriomethoxy)pyrimidin-5-yl]-7-[[4-[1-methyl-4-(trifluoromethyl)imidazol-2-yl]phenyl]methyl]-5H-pyrrolo[3,2-d]pyrimidine]"
30 to 100,< 100,≥ 10000,< 100,"COc1nc(C)nc(C2CC2)c1-c1ncc2[nH]cc(Cc3ccc(-c4nc(C(F)(F)F)cn4C)cc3)c2n1 [Compound 142, 2-(4-cyclopropyl-6-methoxy-2-methylpyrimidin-5-yl)-7-(4-(1-methyl-4-(trifluoromethyl)-1H-imidazol-2-yl)benzyl)-5H-pyrrolo[3,2-d]pyrimidine]"
< 30,< 100,250 to 10000,< 100,"Cn1cc(C(F)(F)F)nc1-c1ccc(Cc2c[nH]c3cnc(-c4c(Cl)ccnc4C4CC4)nc23)cc1 [Compound 150, 2-(4-chloro-2-cyclopropylpyridin-3-yl)-7-(4-(1-methyl-4-(trifluoromethyl)-1H-imidazol-2-yl)benzyl)-5H-pyrrolo[3,2-d]pyrimidine]"
100 to 10000,100 to 250,≥ 10000,100 to 250,"COc1ncnc(C2CC2)c1-c1ncc2[nH]cc(Cc3ccc(-c4nc(C(F)(F)F)cn4C4CN(C)C4)cc3)c2n1 [Compound 18, 2-(4-cyclopropyl-6-methoxypyrimidin-5-yl)-7-(4-(1-(1-methylazetidin-3-yl)-4-(trifluoromethyl)-1H-imidazol-2-yl)benzyl)-5H-pyrrolo[3,2-d]pyrimidine]"

# Further lines, the compound ahead of its results:
Compound,IC50 (USP1-UAF1) [nM],IC50 [1] [nM],IC50 [2] [nM],IC50 (monoubiquitinated PCNA) [nM]
"COc1ncnc(C2CC2)c1-c1ncc2[nH]cc(Cc3ccc(-c4nc(C(F)(F)F)cn4C)cc3F)c2n1 [Compound 120, 2-(4-cyclopropyl-6-methoxy-pyrimidin-5-yl)-7-[[2-fluoro-4-[1-methyl-4-(trifluoromethyl)imidazol-2-yl]phenyl]methyl]-5H-pyrrolo[3,2-d]pyrimidine]",< 30,< 100,≥ 10000,< 100
"COc1ncnc(C2CC2)c1-c1ncc2[nH]nc(Cc3ccc(-c4nc(C(F)(F)F)cn4C)cc3F)c2n1 [Compound 189, 5-(4-cyclopropyl-6-methoxy-pyrimidin-5-yl)-3-[[2-fluoro-4-[1-methyl-4-(trifluoromethyl)imidazol-2-yl]phenyl]methyl]-1H-pyrazolo[4,3-d]pyrimidine]",30 to 100,< 100,≥ 10000,< 100
"COc1ncnc(C2CC2)c1-c1ncc2[nH]nc(Cc3ccc(-c4nc(C(F)(F)F)cn4C)c(C)c3)c2n1 [Compound 95, 5-(4-cyclopropyl-6-methoxy-pyrimidin-5-yl)-3-[[3-methyl-4-[1-methyl-4-(trifluoromethyl)imidazol-2-yl]phenyl]methyl]-1H-pyrazolo[4,3-d]pyrimidine]",< 30,< 100,≥ 10000,< 100
"CCOc1cc(C(F)(F)F)nn1-c1ccc(Cc2n[nH]c3cnc(-c4c(OC)ncnc4C4CC4)nc23)cc1 [Compound 123, 5-(4-cyclopropyl-6-methoxy-pyrimidin-5-yl)-3-[[4-[5-ethoxy-3-(trifluoromethyl)pyrazol-1-yl]phenyl]methyl]-1H-pyrazolo[4,3-d]pyrimidine]",< 30,< 100,250 to 10000,< 100
"COc1ncnc(C2CC2)c1-c1ncc2[nH]c(CN(C)C)c(Cc3ccc(-c4nc(C(F)(F)F)cn4C)cc3)c2n1 [Compound 176, 1-[2-(4-cyclopropyl-6-methoxy-pyrimidin-5-yl)-7-[[4-[1-methyl-4-(trifluoromethyl)imidazol-2-yl]phenyl]methyl]-5H-pyrrolo[3,2-d]pyrimidin-6-yl]-N,N-dimethyl-methanamine]",30 to 100,< 100,≥ 10000,< 100
"COc1ncnc(C2CC2)c1-c1ncc2nn(CC(F)(F)F)c(Cc3ccc(-c4nc(C(F)(F)F)cn4C)cc3)c2n1 [Compound 131, 5-(4-cyclopropyl-6-methoxy-pyrimidin-5-yl)-3-[[4-[1-methyl-4-(trifluoromethyl)imidazol-2-yl]phenyl]methyl]-2-(2,2,2-trifluoroethyl)pyrazolo[4,3-d]pyrimidine]",100 to 10000,< 100,≥ 10000,< 100
"COc1ncnc(C2CC2)c1-c1ncc2[nH]nc(Cc3cc(F)c(-c4nc(C(F)(F)F)cn4C)c(F)c3)c2n1 [Compound 171, 5-(4-cyclopropyl-6-methoxy-pyrimidin-5-yl)-3-[[3,5-difluoro-4-[1-methyl-4-(trifluoromethyl)imidazol-2-yl]phenyl]methyl]-1H-pyrazolo[4,3-d]pyrimidine]",< 30,< 100,≥ 10000,< 100
"CCn1cc(C(F)(F)F)nc1-c1ccc(Cc2c3nc(-c4c(OC)ncnc4C4CC4)ncc3nn2C)cc1 [Compound 139, 5-(4-cyclopropyl-6-methoxypyrimidin-5-yl)-3-(4-(1-ethyl-4-(trifluoromethyl)-1H-imidazol-2-yl)benzyl)-2-methyl-2H-pyrazolo[4,3-d]pyrimidine]",30 to 100,< 100,≥ 10000,< 100
"COc1ncnc(C2CC2)c1-c1ncc2c(n1)c(Cc1ccc(-c3nc(C(F)(F)F)cn3C)cc1)cn2CC(F)(F)F [Compound 125, 2-(4-cyclopropyl-6-methoxy-pyrimidin-5-yl)-7-[[4-[1-methyl-4-(trifluoromethyl)imidazol-2-yl]phenyl]methyl]-5-(2,2,2-trifluoroethyl)pyrrolo[3,2-d]pyrimidine]",< 30,< 100,250 to 10000,< 100
COc1ncnc(C2CC2)c1-c1nc(OC)c2[nH]cc(Cc3ccc(-c4nc(C(F)(F)F)cn4C)cc3)c2n1 [Compound 160],100 to 10000,100 to 250,250 to 10000,250 to 10000
